# Data taken from patent publication EP0832650A2 (ELI LILLY AND COMPANY, priority 1996, dated 1998).
# Counter-ions that a name gives are not always drawn.
# System: neuronal protein extravasation
# Experiment: Neuronal protein extravasation in dura after electrical stimulation of the trigeminal ganglion
# Format: in vivo, Harlan Sprague-Dawley rats or guinea pigs
# Conditions: 10 minutes before trigeminal ganglion stimulation, dose inhibiting extravasation by 50%, approximated from dose-response curve, species (rat or guinea pig) not given
# Description: Harlan Sprague-Dawley rats (250-350 g) or guinea pigs from Charles River Laboratories (250-350 g) were anesthetized with sodium pentobarbital intraperitoneally (65 mg/kg or 45 mg/kg respectively) and placed in a stereotaxic frame (David Kopf Instruments) with the incisor bar set at -3.5 mm for rats or -4.0 mm for guinea pigs. Following a midline sagital scalp incision, two pairs of bilateral holes were drilled through the skull (6 mm posteriorly, 2.0 and 4.0 mm laterally in rats; 4 mm posteriorly and 3.2 and 5.2 mm laterally in guinea pigs, all coordinates referenced to bregma) . Pairs of stainless steel stimulating electrodes, insulated except at the tips, (Rhodes Medical Systems, Inc.) were lowered through the holes in both hemispheres to a depth of 9 mm (rats) or 10.5 mm (guinea pigs) from dura.
# The femoral vein was exposed and a dose of the test compound was injected intravenously (1 mL/kg). Approximately 7 minutes later, a 50 mg/kg dose of Evans Blue, a fluorescent dye, was also injected intravenously. The Evans Blue complexed with proteins in the blood and functioned as a marker for protein extravasation. Exactly 10 minutes post-injection of the test compound, the left trigeminal ganglion was stimulated for 3 minutes at a current intensity of 1.0 mA (5 Hz, 4 msec duration) with a Model 273 potentiostat/ galvanostat (EG&G Princeton Applied Research).
# Fifteen minutes following stimulation, the animals were killed by exsanguination with 40 mL of saline. The top of the skull was removed to facilitate the collection of the dural membranes. The membrane samples were removed from both hemispheres, rinsed with water, and spread flat on microscopic slides. Once dried, the tissues were coverslipped with a 70% glycerol/water solution.
# A fluorescence microscope (Zeiss) equipped with a grating monochromator and a spectrophotometer was used to quantify the amount of Evans Blue dye in each sample. An excitation wavelength of approximately 535 nm was utilized and the emission intensity at 600 nm was determined. The microscope was equipped with a motorized stage and also interfaced with a personal computer. This facilitated the computer-controlled movement of the stage with fluorescence measurements at 25 points (500 µm steps) on each dural sample. The mean and standard deviation of the measurements was determined by the computer.
# The extravasation induced by the electrical stimulation of the trigeminal ganglion was an ipsilateral effect (i.e. occurs only on the side of the dura in which the trigeminal ganglion was stimulated). This allows the other (unstimulated) half of the dura to be used as a control. The ratio of the amount of extravasation in the dura from the stimulated side compared to the unstimulated side dura was calculated. Saline controls yielded a ratio of approximately 2.0 in rats and 1.8 in guinea pigs. […]
row,SMILES,Inhibition of Protein Extravasation i.v. ID50 [mmol/kg]
1,"CNS(=O)(=O)Cc1ccc2[nH]cc(CCN(C)C)c2c1.O=C(O)CCC(=O)O [Compound I, 3-[2-(dimethylamino)ethyl]-N-methyl-1H-indole-5-methanesulfonamide butane-1,4-dioate (1:1)]",2.6e-08
2,"Cn1cc(CCN2CCC(c3c[nH]c4ccc(F)cc34)CC2)cn1 [Compound II, 5-fluoro-3-<1-<2-<1-methyl-1H-pyrazol-4-yl>ethyl>-4-piperidinyl>-1H-indole hydrochloride]",8.6e-10
3,"O=C(O)C(=O)O.Oc1ccc2[nH]cc(C3CCNCC3)c2c1 [Compound III, 5-hydroxy-3-(4-piperidinyl)-1H-indole oxalate]",8.9e-09
4,"CCN(CC)C1CCc2cccc(Cl)c2C1.Cl (centres unmarked) [Compound IV, 8-chloro-2-diethylamino-1,2,3,4-tetrahydronaphthalene hydrochloride]",1.2e-07
5,"CN(C)C1CCc2[nH]c3ccc(O)cc3c2C1 (centres unmarked) [Compound V, 6-hydroxy-3-dimethylamino-1,2,3,4-tetrahydrocarbazole]",8.7e-09
